# Source: publication PMC7849180 (Frontiers in Pharmacology, 2020)
# What was measured:
# [1] = PK, single intragastric dose; type: in vivo, rats
# Protocol: Suzhou Zelgen Biopharmaceuticals Co., Ltd. Jaktinib Hydrochloride Tablets Chemical Drug Class 1 New Drug […]
# Gender Tma x Cma x AUC0-t AUC0-∞ MRT t1/2 […]
# Pharmacokinetic Study of Single-Dose Intragastric Administration in […]
# After a single intragastric administration of 15.3, 30.5 and 61 mg/kg of ZG0128 […]
# drug in three dose groups were 5.74, 8.33 and 12.4 μg/mL, respectively. […]
# ZG0245 was lower than the proportional increase in dose, the increase in the AUC0-t of ZG0163 was directly proportional to the increase in dose, and the increase in the AUC0-t of the metabolite ZG0245 was slightly higher than the proportional increase in dose. Based on the average value of AUC0-t, the absolute bioavailability of the drug in rats receiving a single intragastric administration of 15.3 mg/kg of […] was 40.0%. […]
# [2] = Plasma pharmacokinetics, multiple ascending dose (MAD), 10 days; type: in vivo, human
# Protocol: MAD study was conducted after evaluating the tolerance of the single dose 100 mg cohort. In MAD part, volunteers were designed into five cohorts (100 mg q24h, 150 mg q24h, 100 mg q12h, 200 mg q24h, 150 mg q12h). […] The MAD part was initiated after the safety and tolerance evaluation from SAD 100 mg cohorts. Progression to higher MAD doses was allowed after review the safety data of the prior MAD cohorts.
# For MAD cohorts, blood samples were collected at 0, 0.25, 0.5, 1, 1.5, 2, 3, 4, 5, 6, 8 and 12 h on day 1; 0 h on day 2, 3, 4, 6 and 7; 0, 0.25, 0.5, 1, 1.5, 2, 3, 4, 5, 6, 8, 12, 24, 36 and 48 h on day 10. In food effect cohort, blood samples were collected at 0, 0.25, 0.5, 1, 1.5, 2, 3, 4, 5, 6, 8, 12, 24, 36, 48, 72, 96 and 120 h in period one of group A; 0, 0.25, 0.5, 1, 1.5, 2, 3, 4, 5, 6, 8, 12, 24, 36 and 48 h in period two of group A and the two periods of group B. Blood samples were centrifuged at 3,000 rpm for 10 min at 2–8 °C and stored at -80 °C until liquid chromatography-mass spectrophotometry (LC-MS/MS) analysis. Urine and feces samples were collected in period one of group A of food effect cohort with the intervals 0, 0–6, 6–12, 12–24, 24–48, 48–72, 72–96, 96–120 and 0–120 h, respectively. […]
substance,measurement,setting,value
Jaktinib,AUC0-t,"[1]; 15.3 mg/kg ZG0128, Female",19.4 ± 7.5 µg·h/mL
same,AUC0-∞,"[1]; 15.3 mg/kg ZG0128, Female",19.4 ± 7.5 µg·h/mL
same,Cmax,"[1]; 15.3 mg/kg ZG0128, Female",4.82 ± 1.25 µg/mL
same,MRT,"[1]; 15.3 mg/kg ZG0128, Female",2.82 ± 0.60 h
same,Tmax,"[1]; 15.3 mg/kg ZG0128, Female",0.5 (0.5-1.0) h
same,t1/2,"[1]; 15.3 mg/kg ZG0128, Female",0.93 ± 0.26 h
same,AUC0-t,"[1]; 15.3 mg/kg ZG0128, Male",24.5 ± 11.3 µg·h/mL
same,AUC0-∞,"[1]; 15.3 mg/kg ZG0128, Male",24.6 ± 11.3 µg·h/mL
same,Cmax,"[1]; 15.3 mg/kg ZG0128, Male",6.66 ± 2.13 µg/mL
same,MRT,"[1]; 15.3 mg/kg ZG0128, Male",2.45 ± 0.29 h
same,Tmax,"[1]; 15.3 mg/kg ZG0128, Male",1.0 (0.5-2.0) h
same,t1/2,"[1]; 15.3 mg/kg ZG0128, Male",0.84 ± 0.20 h
same,AUC0-t,"[1]; 15.3 mg/kg ZG0128, Overall",21.9 µg·h/mL
same,AUC0-∞,"[1]; 15.3 mg/kg ZG0128, Overall",22.0 ± 9.0 µg·h/mL
same,Cmax,"[1]; 15.3 mg/kg ZG0128, Overall",5.74 µg/mL
same,MRT,"[1]; 15.3 mg/kg ZG0128, Overall",2.63 ± 0.47 h
same,Tmax,"[1]; 15.3 mg/kg ZG0128, Overall",0.75 (0.5-2.0) h
same,t1/2,"[1]; 15.3 mg/kg ZG0128, Overall",0.89 ± 0.21 h
same,absolute bioavailability,"[1]; 15.3 mg/kg, by AUC0-t",40.0%
same,AUC0-t,"[1]; 30.5 mg/kg ZG0128, Female",39.9 ± 13.6 µg·h/mL
same,AUC0-∞,"[1]; 30.5 mg/kg ZG0128, Female",40.2 ± 13.2 µg·h/mL
same,Cmax,"[1]; 30.5 mg/kg ZG0128, Female",9.68 ± 3.40 µg/mL
same,MRT,"[1]; 30.5 mg/kg ZG0128, Female",3.46 ± 0.75 h
same,Tmax,"[1]; 30.5 mg/kg ZG0128, Female",2.0 (2.0) h
same,t1/2,"[1]; 30.5 mg/kg ZG0128, Female",2.07 ± 2.24 h
same,AUC0-t,"[1]; 30.5 mg/kg ZG0128, Male",41.6 ± 19.7 µg·h/mL
same,AUC0-∞,"[1]; 30.5 mg/kg ZG0128, Male",43.2 ± 21.9 µg·h/mL
same,Cmax,"[1]; 30.5 mg/kg ZG0128, Male",6.97 ± 1.15 µg/mL
same,MRT,"[1]; 30.5 mg/kg ZG0128, Male",3.95 ± 1.68 h
same,Tmax,"[1]; 30.5 mg/kg ZG0128, Male",1.0 (1.0-2.0) h
same,t1/2,"[1]; 30.5 mg/kg ZG0128, Male",1.58 ± 0.75 h
same,AUC0-t,"[1]; 30.5 mg/kg ZG0128, Overall",40.8 µg·h/mL
same,AUC0-∞,"[1]; 30.5 mg/kg ZG0128, Overall",41.7 ± 16.2 µg·h/mL
same,Cmax,"[1]; 30.5 mg/kg ZG0128, Overall",8.33 µg/mL
same,MRT,"[1]; 30.5 mg/kg ZG0128, Overall",3.70 ± 1.19 h
same,Tmax,"[1]; 30.5 mg/kg ZG0128, Overall",2.0 (1.0-2.0) h
same,t1/2,"[1]; 30.5 mg/kg ZG0128, Overall",1.82 ± 1.52 h
same,AUC0-t,"[1]; 61 mg/kg ZG0128, Female",82.7 ± 31.0 µg·h/mL
same,AUC0-∞,"[1]; 61 mg/kg ZG0128, Female",87.3 ± 31.0 µg·h/mL
same,Cmax,"[1]; 61 mg/kg ZG0128, Female",12.1 ± 2.6 µg/mL
same,MRT,"[1]; 61 mg/kg ZG0128, Female",4.87 ± 1.22 h
same,Tmax,"[1]; 61 mg/kg ZG0128, Female",4.0 (1.0-6.0) h
same,t1/2,"[1]; 61 mg/kg ZG0128, Female",2.14 ± 0.31 h
same,AUC0-t,"[1]; 61 mg/kg ZG0128, Male",124 ± 58 µg·h/mL
same,AUC0-∞,"[1]; 61 mg/kg ZG0128, Male",124 ± 58 µg·h/mL
same,Cmax,"[1]; 61 mg/kg ZG0128, Male",12.8 ± 1.7 µg/mL
same,MRT,"[1]; 61 mg/kg ZG0128, Male",6.20 ± 2.52 h
same,Tmax,"[1]; 61 mg/kg ZG0128, Male",2.0 (2.0-8.0) h
same,t1/2,"[1]; 61 mg/kg ZG0128, Male",1.56 ± 0.59 h
same,AUC0-t,"[1]; 61 mg/kg ZG0128, Overall",103 µg·h/mL
same,AUC0-∞,"[1]; 61 mg/kg ZG0128, Overall",106 ± 46 µg·h/mL
same,Cmax,"[1]; 61 mg/kg ZG0128, Overall",12.4 µg/mL
same,MRT,"[1]; 61 mg/kg ZG0128, Overall",5.54 ± 1.92 h
same,Tmax,"[1]; 61 mg/kg ZG0128, Overall",3.0 (1.0-8.0) h
same,t1/2,"[1]; 61 mg/kg ZG0128, Overall",1.85 ± 0.53 h
same,"Tmax, range over doses","[1]; 15.3, 30.5 and 61 mg/kg ZG0128",45 to 180 min
same,"plasma elimination half-life t1/2, range over doses","[1]; 15.3, 30.5 and 61 mg/kg ZG0128",53.4 to 111 min
same,accumulation factor Rac (90% CI),[2]; 100 mg q12h,1.24
same,"Cmax, geometric mean (CV%)","[2]; 100 mg q12h, Day 1",204.68 (36.2) ng/ml
same,"Tmax, median (min–max)","[2]; 100 mg q12h, Day 1",1.50 (0.50–4.00) h
same,"Cmax, geometric mean (CV%)","[2]; 100 mg q12h, Day 10",226.87 (33.2) ng/ml
same,"Cmin,ss, geometric mean (CV%)","[2]; 100 mg q12h, Day 10",27.565 (96.3) ng/ml
same,"Fluctuation, geometric mean (CV%)","[2]; 100 mg q12h, Day 10",204.463 (31.3) %
same,"Tmax, median (min–max)","[2]; 100 mg q12h, Day 10",3.00 (0.50–4.00) h
same,accumulation factor Rac (90% CI),[2]; 100 mg q24h,0.98
same,"Cmax, geometric mean (CV%)","[2]; 100 mg q24h, Day 1",182.68 (73.4) ng/ml
same,"Tmax, median (min–max)","[2]; 100 mg q24h, Day 1",2.00 (1.00–4.00) h
same,"Cmax, geometric mean (CV%)","[2]; 100 mg q24h, Day 10",150.84 (76.7) ng/ml
same,"Cmin,ss, geometric mean (CV%)","[2]; 100 mg q24h, Day 10",8.217 (169.4) ng/ml
same,"Fluctuation, geometric mean (CV%)","[2]; 100 mg q24h, Day 10",290.146 (45.7) %
same,"Tmax, median (min–max)","[2]; 100 mg q24h, Day 10",1.50 (1.00–4.00) h
same,accumulation factor Rac (90% CI),[2]; 150 mg q12h,1.38
same,"Cmax, geometric mean (CV%)","[2]; 150 mg q12h, Day 1",295.08 (52.6) ng/ml
same,"Tmax, median (min–max)","[2]; 150 mg q12h, Day 1",2.00 (1.00–4.00) h
same,"Cmax, geometric mean (CV%)","[2]; 150 mg q12h, Day 10",470.78 (38.2) ng/ml
same,"Cmin,ss, geometric mean (CV%)","[2]; 150 mg q12h, Day 10",26.868 (39.2) ng/ml
same,"Fluctuation, geometric mean (CV%)","[2]; 150 mg q12h, Day 10",274.265 (17.3) %
same,"Tmax, median (min–max)","[2]; 150 mg q12h, Day 10",1.25 (0.50–2.00) h
same,accumulation factor Rac (90% CI),[2]; 150 mg q24h,1.16
same,"Cmax, geometric mean (CV%)","[2]; 150 mg q24h, Day 1",236.94 (88.6) ng/ml
same,"Tmax, median (min–max)","[2]; 150 mg q24h, Day 1",3.00 (1.00–6.00) h
same,"Cmax, geometric mean (CV%)","[2]; 150 mg q24h, Day 10",250.23 (70.3) ng/ml
same,"Cmin,ss, geometric mean (CV%)","[2]; 150 mg q24h, Day 10",14.342 (71.1) ng/ml
same,"Fluctuation, geometric mean (CV%)","[2]; 150 mg q24h, Day 10",281.461 (29.1) %
same,"Tmax, median (min–max)","[2]; 150 mg q24h, Day 10",2.50 (1.00–5.00) h
same,accumulation factor Rac (90% CI),[2]; 200 mg q24h,0.94
same,"Cmax, geometric mean (CV%)","[2]; 200 mg q24h, Day 1",327.37 (36.6) ng/ml
same,"Tmax, median (min–max)","[2]; 200 mg q24h, Day 1",2.50 (1.50–4.00) h
same,"Cmax, geometric mean (CV%)","[2]; 200 mg q24h, Day 10",296.88 (58.3) ng/ml
same,"Cmin,ss, geometric mean (CV%)","[2]; 200 mg q24h, Day 10",10.798 (125.4) ng/ml
same,"Fluctuation, geometric mean (CV%)","[2]; 200 mg q24h, Day 10",390.098 (38.5) %
same,"Tmax, median (min–max)","[2]; 200 mg q24h, Day 10",3.00 (1.50–4.00) h
same,time to steady state,"[2]; continuous administration, trough concentrations",approximately 4 days
